Results published in publication PMC9289467, “A Novel Multifunctional 5,6-Dimethoxy-Indanone-Chalcone-Carbamate Hybrids Alleviates Cognitive Decline in Alzheimer’s Disease by Dual Inhibition of Acetylcholinesterase and Inflammation” (Frontiers in Aging Neuroscience, 2022).

Experiments:
synaptophysin, PSD95 = assay: Synaptophysin and PSD95 co-immunofluorescence and western blot, hippocampus; format: in vivo, APP/PS1 mice
Description: (§1) APP/PS1 mice of ages 6 months were randomly divided into vehicle (APP/PS1, n = 10) and treatment groups (AP5, n = 10), which were intragastrically administered with AP5 (40 mg/kg) once daily for consecutive 5 months. AP5 was dissolved in distilled water containing 1% sodium carboxymethyl cellulose.
The fixed hemibrains were paraffin-embedded and sectioned in the coronal plane. The slices were deparaffinized with xylene and rehydrated by a series of gradient alcohols. Antigen retrieval through microwave boiling was performed with 10 mM sodium citrate solution at pH 6.0. The slices were cooled down to room temperature and then rinsed in PBS solution. […]
Frozen hippocampus and cortex were homogenized in pre-cooling RIPA buffer (P0013B, Beyotime) supplemented with 1 mM phenylmethanesulfonyl fluoride (PMSF) and cocktail of protease and phosphatase inhibitors. […] Densitometric analysis was performed using Quantity One software (Bio-Rad, Berkeley, CA, United States).
Briefly, for ACh assay, the reactions were started by adding 100 µL of the Amplex Red reagent, HRP, choline oxidase, AChE working solution to each microplate well containing the controls and samples. […] Assay plates were incubated at room temperature for 30 min and protected from light, followed by detecting fluorescence of resorufin (λex = 544 nm, λem = 590 nm) in a fluorescence microplate reader. […]

AChE = biological target: T1, AChE (Mus musculus, UniProt P21836); assay: Brain AChE activity, Amplex Red kit, APP/PS1 mice; format: in vivo; details: AP5 40 mg/kg intragastric once daily 5 months, vs APP/PS1 mice
T1 construct: The brain samples were weighed, homogenized in PBS solution, and centrifuged; from tissue; host or cells: mouse brain (cortex and hippocampus) of APP/PS1 mice dosed with AP5
T1 sequence (P21836 32-614): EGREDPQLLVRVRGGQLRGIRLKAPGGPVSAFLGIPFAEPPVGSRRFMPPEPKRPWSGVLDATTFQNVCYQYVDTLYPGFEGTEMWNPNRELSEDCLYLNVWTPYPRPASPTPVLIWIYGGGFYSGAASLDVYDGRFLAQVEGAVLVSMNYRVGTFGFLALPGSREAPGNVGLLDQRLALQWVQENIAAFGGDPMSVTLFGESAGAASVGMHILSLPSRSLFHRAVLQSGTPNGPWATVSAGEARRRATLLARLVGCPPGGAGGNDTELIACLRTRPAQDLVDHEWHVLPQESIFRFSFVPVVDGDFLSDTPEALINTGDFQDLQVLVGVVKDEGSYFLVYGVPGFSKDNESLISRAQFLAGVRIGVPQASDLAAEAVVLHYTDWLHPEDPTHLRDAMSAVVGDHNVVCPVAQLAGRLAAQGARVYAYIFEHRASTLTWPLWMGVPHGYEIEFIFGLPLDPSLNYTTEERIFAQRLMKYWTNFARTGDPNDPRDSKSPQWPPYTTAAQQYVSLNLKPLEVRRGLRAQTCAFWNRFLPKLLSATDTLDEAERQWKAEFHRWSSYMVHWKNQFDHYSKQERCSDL
Description: as §1
The brain samples were weighed, homogenized in PBS solution, and centrifuged for 20 min at 25,000 g at 4°C. Amplex® Red acetylcholinesterase/acetylcholine assay kit (A12217, Thermo Fisher Scientific) was used to detect AChE activity and ACh levels in the supernatant in accordance with the manufacturer’s instructions.
Briefly, for ACh assay, the reactions were started by adding 100 µL of the Amplex Red reagent, HRP, choline oxidase, AChE working solution to each microplate well containing the controls and samples. For AChE assay, detection cocktail solution containing ACh, Amplex Red, choline oxidase and horseradish peroxidase was added toeach well. Assay plates were incubated at room temperature for 30 min and protected from light, followed by detecting fluorescence of resorufin (λex = 544 nm, λem = 590 nm) in a fluorescence microplate reader.
After deparaffinization and antigen retrieval, the sections were incubated with 0.3% hydrogen peroxide (H2O2) to inhibit endogenous peroxidase activity for 20 min and blocked by goat serum for 30 min at37°C. […]

[1] = tested on: spatial learning and memory; assay: Morris water maze; format: in vivo, APP/PS1 mice; details: after 5 months of treatment
Description: as §1
To investigate whether AP5 treatment plays a key role in cognition improvement of APP/PS1 mice models, the five different behavioral tests were sequentially carried out in the following order: open field, novel object recognition task, spatial object-location task, Y-maze, and Morris water maze (MWM). AP5 was also administered daily during the test periods. A set of video analysis systems (TopScan, CleverSys, United States) was used throughout the behavioral tests. […]
the familiar object) / total exploration time for the novel and familiar object.
For the spatial object location task (an object moved to a new location), mice first explored the two objects placed in two corners of the open field for 5 min in training period. After 1 h or 24 h, the mice received a 5 min retention trial with a new spatial configuration with an object moved from one corner to the opposite corner of the open field.The discrimination index was calculated and defined as: (time spent exploring the displaced object-time spent exploring nondisplaced objects) / total exploration time for the two objects during the 5 min retention trial.
Work on spatial recognition memory was tested by Y-maze. The symmetrical Y-maze consisted of three arms joined in the middle to form a Y shape. […] The ratio between the distance spent in the novel arm and the totaldistance travelled in the maze was quantified as preference index. […]
guided to platform and allowed to stay on it for 30 s. The time (escape latency) for each mouse to find the way and reach the target platform was analyzed. […] The parameters measured during the probe trialincluded number of platform crossing and time spent in the target quadrant. […]

`CCN(C)C(=O)Oc1cccc(/C=C2\Cc3cc(OC)c(OC)cc3C2=O)c1` [AP5, (E)-3-((5,6-dimethoxy-1-oxo-1,3-dihydro-2H-inden-2-ylidene)-methyl)phenylethyl(methyl)carbamate] was tested, and the “pre-, post- and double-positive synaptic puncta (synapse damage)” value (synaptophysin, PSD95; synaptophysin and PSD95 co-immunofluorescence, hippocampus CA3) was “markedly recovered”, the “expression levels of synaptophysin and PSD95” value (synaptophysin, PSD95; western blot, hippocampus) was “more than that in the APP/PS1 mice” and the “AChE activity in cortex and hippocampus” value (AChE) was “decreased activity of AChE”. The platform crossing number ([1]; MWM probe trial) was “performed much better”, the “time spent in the target quadrant” value ([1]; MWM probe trial) was “performed much better” and the escape latency ([1]; MWM) was “performed much better”.
